Substitutions are numbered along the chain they refer to. Like-named read-outs stand apart in the source and are kept apart here.
How the values were obtained:
[1] = molecular target: T1, human solubilized and purified P2X4-E307T receptor mutant reconstituted into nanodiscs (Homo sapiens, UniProt Q99571, E307T/N184R/N75R); experiment: Homologous competition binding vs [35S]ATPγS, purified P2X4-E307T receptor in nanodiscs; details: 0.2 nM [35S]ATPγS; P2X4-E307T construct in nanodiscs
T1 construct: The full-length human P2X4 receptor gene was subcloned into the pFastBac1 vector; Rho1D4 (fused by GSSG linker) (C); GSSG linker + human rhinovirus 3C protease site + 10x-His (C); made in house; host or cells: Sf9 insect cells (baculovirus)
Method: (§1) Radioligand binding studies were performed according to a published procedure. […] After an incubation of 1 h at room temperature, the incubation was terminated by rapid vacuum filtration through GF/B glass fiber filters using a Brandel 48-well harvester (Brandel). The filters were rinsed three times with ice-cold Tris-HCl buffer (50 mM, pH 7.4, 3-4 mL each) to separate unbound from bound radioligand. After punching out the filters and transferring them into scintillation vials, scintillation cocktail (2.5 mL, Ultima Gold®) was added. The samples were measured after 6 h of preincubation using a liquid scintillation counter for 1 min each. All data from calcium influx assays and radioligand binding studies were analyzed using Microsoft Excel. […] KD and Bmax values from radioligand binding assays were calculated by using the “one site-homologous” equation, implemented in GraphPad Prism version 8.0. The level of significance was calculated by a one-way ANOVA with Dunnett's post hoc test, in case there was a control group, and multiple comparison was required. […] The significance levels were defined as follows: *P < 0.05, **P < 0.01, ***P < 0.001, ****P < 0.0001.

human wt P2X4 receptor [2] = molecular target: T2, human wt P2X4 receptor (Homo sapiens, UniProt Q99571); experiment: Homologous competition binding vs [35S]ATPγS, 1321N1 astrocytoma cell membranes; details: 0.2 nM [35S]ATPγS, 1321N1 membranes
T2 construct: expressed in transfected cells
T2 sequence (Q99571 1-388): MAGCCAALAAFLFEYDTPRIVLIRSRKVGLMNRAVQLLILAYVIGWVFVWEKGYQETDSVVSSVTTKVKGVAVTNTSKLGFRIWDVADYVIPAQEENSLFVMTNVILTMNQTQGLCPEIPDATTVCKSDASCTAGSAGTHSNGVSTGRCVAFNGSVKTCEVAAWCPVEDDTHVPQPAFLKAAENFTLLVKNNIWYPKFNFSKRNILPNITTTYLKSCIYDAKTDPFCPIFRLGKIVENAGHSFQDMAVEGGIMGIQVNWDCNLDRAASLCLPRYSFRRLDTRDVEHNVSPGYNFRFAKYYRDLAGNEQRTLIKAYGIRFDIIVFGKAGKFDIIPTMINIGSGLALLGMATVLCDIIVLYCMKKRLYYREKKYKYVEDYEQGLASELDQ
Method: as §1

human P2X4 receptor [3] = system: human P2X4 receptor; parameters: method as in not given; details: assay and ref not given; cited from earlier work
[4] = parameters: method as in not given; details: ref not given; cited from earlier work
[5] = parameters: method as in not given; details: rebuttal comparison table; ref not given; cited from earlier work
human P2X4 receptor [6] = molecular target: human P2X4 receptor; parameters: method as in https://doi.org/10.1124/mol.114.096222; details: patch clamp, HEK293; ref https://doi.org/10.1124/mol.114.096222; read-out: Potency (IC50 value) at the human P2X4 receptor; cited from earlier work
human P2X4 receptor [7] = molecular target: human P2X4 receptor; parameters: method as in ref 10.1016/j.heliyon.2023.e21265; details: SPR competition assay; ref 10.1016/j.heliyon.2023.e21265; read-out: Potency (IC50 value) at the human P2X4 receptor; cited from earlier work
mouse P2X4 receptors = system: mouse P2X4 receptors; parameters: method as in not given; details: ref not given; cited from earlier work
rat P2X4 receptors = system: rat P2X4 receptors; parameters: method as in not given; details: ref not given; cited from earlier work
human wt P2X4 receptor [8] = molecular target: T2, human wt P2X4 receptor; experiment: ATP-induced calcium influx assay, human wt P2X4 receptor in 1321N1 astrocytoma cells; type: cell-based; details: wt P2X4; ATP at EC80
[9] = molecular target: T3, human P2X4-E307T receptor mutant (Homo sapiens, UniProt Q99571, E307T); experiment: ATP-induced calcium influx assay, P2X4-E307T mutant in 1321N1 astrocytoma cells; type: cell-based; details: ratio of IC50 values, calcium influx
T3 construct: expressed in transfected cells
T3 sequence (Q99571 1-388 E307T): T2 sequence (Q99571 1-388) with E307T

human wt P2X2 receptor = molecular target: T4, human wt P2X2 receptor (Homo sapiens, UniProt Q9UBL9); experiment: ATP-induced calcium influx assay, human wt P2X2 receptor in 1321N1 astrocytoma cells; type: cell-based; details: for IC50: wt hP2X2
T4 construct: expressed in transfected cells
T4 sequence (Q9UBL9 1-471): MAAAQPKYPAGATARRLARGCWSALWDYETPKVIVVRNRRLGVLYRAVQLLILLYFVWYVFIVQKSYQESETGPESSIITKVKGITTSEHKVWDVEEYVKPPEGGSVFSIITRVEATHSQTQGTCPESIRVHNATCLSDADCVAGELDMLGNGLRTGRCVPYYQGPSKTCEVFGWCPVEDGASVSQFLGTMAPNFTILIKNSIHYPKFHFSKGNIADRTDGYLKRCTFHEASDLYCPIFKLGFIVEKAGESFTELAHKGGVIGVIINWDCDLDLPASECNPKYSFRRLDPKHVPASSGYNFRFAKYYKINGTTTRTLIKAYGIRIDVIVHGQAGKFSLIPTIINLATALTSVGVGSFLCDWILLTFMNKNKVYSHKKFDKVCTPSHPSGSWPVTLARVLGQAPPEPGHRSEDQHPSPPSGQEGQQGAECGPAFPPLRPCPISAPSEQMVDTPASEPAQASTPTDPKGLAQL

[10] = Physicochemical properties (water solubility, lipophilicity); details: as stated in words
[11] = molecular target: T5, chimeric P2X4(P2X2) receptor c6^N208-S216 (Homo sapiens, UniProt Q99571, I209R/N208D/S216R/T211D/T212G); details: ATP at EC80
T5 sequence (Q99571 1-388 N208D/I209R/T211D/T212G/S216R): T2 sequence (Q99571 1-388) with N208D, I209R, T211D, T212G, S216R

[12] = molecular target: T6, P2X4-Q308T receptor mutant (Homo sapiens, UniProt Q99571, Q308T); details: calcium influx
T6 sequence (Q99571 1-388 Q308T): T2 sequence (Q99571 1-388) with Q308T

T1 sequence (Q99571 whole entry N75R/N184R/E307T, the tested form may be a part): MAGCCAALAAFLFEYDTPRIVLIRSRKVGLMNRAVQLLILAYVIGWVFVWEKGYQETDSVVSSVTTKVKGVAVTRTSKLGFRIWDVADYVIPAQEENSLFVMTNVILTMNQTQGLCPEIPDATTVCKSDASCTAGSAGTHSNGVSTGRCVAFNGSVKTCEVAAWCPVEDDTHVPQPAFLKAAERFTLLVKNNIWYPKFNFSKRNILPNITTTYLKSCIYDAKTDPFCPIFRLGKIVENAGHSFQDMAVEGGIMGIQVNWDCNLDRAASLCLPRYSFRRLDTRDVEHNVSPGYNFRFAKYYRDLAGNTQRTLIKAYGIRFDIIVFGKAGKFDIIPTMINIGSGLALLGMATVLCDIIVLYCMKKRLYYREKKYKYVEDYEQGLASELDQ

With `Nc1ncnc2c1ncn2[C@@H]1O[C@H](CO[P@](=O)(O)O[P@](=O)(O)O[P@@](=O)(O)S)[C@@H](O)[C@H]1O` [ATPγS] the “Dissociation constant (KD value)” value [1] was 0.00601 ± 0.00081 µM and the Kd (human wt P2X4 receptor [2]) was 0.0141 ± 0.0027 µM.
In the case of `NS(=O)(=O)c1cc(NC(=O)Cc2ccccc2)ccc1Oc1cccc(Cl)c1` [BAY-1797, N-4-(3-chlorophenoxy)-3-sulfamoylphenyl-2-phenylacetamide], the “Extent of receptor inhibition (no complete inhibition)” value (human P2X4 receptor [3]) is given as “about 80%” and the Oral bioavailability [4] is given as “orally bioavailable”.
In the case of `CC(C)c1cc(Br)c(NC(=O)Nc2cccnc2)c(Br)c1` [BX430], the Lipophilicity [5] is given as “Lipophilic”, the IC50 (human P2X4 receptor [6]) is given as 0.54 µM and the IC50 (human P2X4 receptor [7]) is given as 4.5 µM. For the same molecule, the “Potency at mouse compared with human P2X4 receptors” value (mouse P2X4 receptors) was “significantly weaker” and the “Potency at rat compared with human P2X4 receptors” value (rat P2X4 receptors) was “significantly weaker”.
In the case of `Nc1c(S(=O)(=O)O)cc(Nc2ccc(Nc3nc(Cl)nc(Nc4ccccc4S(=O)(=O)O)n3)c(S(=O)(=O)O)c2)c2c1C(=O)c1ccccc1C2=O` [Cibacron Blue], the “Enhancement of the ATP effect at low concentrations” value (human wt P2X4 receptor [8]) is reported as “up to 141%”, the “Kind of modulation (shape of concentration-response curve)” value (human wt P2X4 receptor [8]) is reported as “biphasic modulation” and the “Potency increase at P2X4-E307T compared to wt P2X4” value [9] is reported as 680 fold. For the same molecule, the “Kind of modulation at an EC20 of ATP” value (human wt P2X2 receptor; P2X2, ATP […] (EC20)) was “no clear activating effect”, the IC50 (human wt P2X2 receptor; ATP at EC80, read-out: IC50) was 13.1 µM and the IC50 (human wt P2X2 receptor; read-out: pIC50 ± SEM (n value) (converted)) was 12.6 µM. For the same molecule, the Water solubility [10] was “water-soluble”, the “Kind of modulation (shape of concentration-response curve)” value [11] was “biphasic modulation” and the “Potency at P2X4-Q308T compared to wt P2X4” value [12] was “similar”.
